Experimental data from patent US20250179073A1, “TRICYCLIC HETEROCYCLE COMPOUNDS AS IAP ANTAGONISTS” (Ascentage Pharma (Suzhou) Co., Ltd., priority 2022, published 2025).

Test system: MDA-MB-231 cells
Experiment: Cell proliferation assay (CellTiter-Glo), MDA-MB-231
Assay type: cell-based
Conditions: 72 h treatment, Celltiter-Glo luminescence
Summary of the method: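 MDA-MB-231 (RPMI-1640/10% FBS) and EVSA-T (MEM/10% FBS) cells, 10000 cells/well, exposed 72 h to compound at […]. Viability read by CellTiter-Glo luminescence after 15 min at room temperature. IC50 from control-normalised curve fitting.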

Row | IC50 [nM] | SMILES
1 | 80 | C[C@@H]1CN(CC(=O)N2CC(C)(C)c3c2cc(Cc2ccc(F)cc2)c2nc(N4C[C@@H](O)[C@H](O)C4)nn32)[C@@H](CN2CCOC[C@H]2C)CN1 [Compound 188, 1-(2-((3R,4R)-3,4-dihydroxypyrrolidin-1-yl)-4-(4-fluorobenzyl)-8,8-dimethyl-7,8-dihydro-6H-pyrrolo[2,3-e][1,2,4]triazolo[1,5-a]pyridin-6-yl)-2-((2R,5R)-5-methyl-2-(((R)-3-methylmorpholino)methyl)piperazin-1-yl)ethan-1-one]

Same assay, conditions: Homo sapiens, MDA-MB-231, 72 h, 72 h treatment, Celltiter-Glo luminescence

Row | IC50 [nM] | SMILES
2 | > 10000 | C[C@@H]1CN(CC(=O)N2CC(C)(C)c3c2cc(Cc2ccc(F)cc2)c2nc(NS(C)(=O)=O)nn32)[C@@H](CN2CCOC[C@H]2C)CN1 [Example 15, N-(4-(4-fluorobenzyl)-8,8-dimethyl-6-(2-((2R,5R)-5-methyl-2-(((R)-3-methylmorpholino)methyl)piperazin-1-yl)acetyl)-7,8-dihydro-6H-pyrrolo[2,3-e][1,2,4]triazolo[1,5-a]pyridin-2-yl)methanesulfonamide]
3 | 95 | CC(C)c1nc2c(Cc3ccc(F)cc3)cc3c(n2n1)C(C)(C)CN3C(=O)CN1C[C@@H](C)NC[C@@H]1CN1CCOC[C@H]1C [Compound 171, 1-(4-(4-fluorobenzyl)-2-isopropyl-8,8-dimethyl-7,8-dihydro-6H-pyrrolo[2,3-e][1,2,4]triazolo[1,5-a]pyridin-6-yl)-2-((2R,5R)-5-methyl-2-(((R)-3-methylmorpholino)methyl)piperazin-1-yl)ethan-1-one]
4 | 1390 | C[C@@H]1CN(CC(=O)N2CC(C)(C)c3c2cc(Cc2ccc(F)cc2)c2nnc(N)n32)[C@@H](CN2CCOC[C@H]2C)CN1 [Compound 136, 1-(1-amino-4-(4-fluorobenzyl)-8,8-dimethyl-7,8-dihydro-6H-pyrrolo[2,3-e][1,2,4]triazolo[4,3-a]pyridin-6-yl)-2-((2R,5R)-5-methyl-2-(((R)-3-methylmorpholino)methyl)piperazin-1-yl)ethan-1-one]
5 | 240 | C[C@@H]1CN(CC(=O)N2CC(C)(C)c3c2cc(Cc2ccc(F)cc2)n2ccnc32)[C@@H](CN2CCOC[C@H]2C)CN1 [Example 24, 1-(5-(4-fluorobenzyl)-9,9-dimethyl-8,9-dihydro-7H-imidazo[1,2-a]pyrrolo[3,2-c]pyridin-7-yl)-2-((2R,5R)-5-methyl-2-(((R)-3-methylmorpholino)methyl)piperazin-1-yl)ethan-1-one]
6 | 99 | C[C@@H]1CN(CC(=O)N2CC(C)(C)c3c2cc(Cc2ccc(F)cc2)c2nc(N4CC(C)(O)C4)nn32)[C@@H](CN2CCOC[C@H]2C)CN1 [Compound 170, 1-(4-(4-fluorobenzyl)-2-(3-hydroxy-3-methylazetidin-1-yl)-8,8-dimethyl-7,8-dihydro-6H-pyrrolo[2,3-e][1,2,4]triazolo[1,5-a]pyridin-6-yl)-2-((2R,5R)-5-methyl-2-(((R)-3-methylmorpholino)methyl)piperazin-1-yl)ethan-1-one]
7 | 1000 | C[C@@H]1CN(CC(=O)N2CC(C)(C)c3c2cc(N2CCNc4cc(F)ccc42)c2ncnn32)[C@@H](CN2CCOC[C@H]2C)CN1 [Compound 198, 1-(4-(6-fluoro-3,4-dihydroquinoxalin-1(2H)-yl)-8,8-dimethyl-7,8-dihydro-6H-pyrrolo[2,3-e][1,2,4]triazolo[1,5-a]pyridin-6-yl)-2-((2R,5R)-5-methyl-2-(((R)-3-methylmorpholino)methyl)piperazin-1-yl)ethan-1-one]
8 | 3800 | C[C@@H]1CN(CC(=O)N2CC(C)(C)c3c2cc(Cn2ccc(F)cc2=O)c2ncnn32)[C@@H](CN2CCOC[C@H]2C)CN1 [Compound 151, 1-((8,8-dimethyl-6-(2-((2R,5R)-5-methyl-2-(((R)-3-methylmorpholino)methyl)piperazin-1-yl)acetyl)-7,8-dihydro-6H-pyrrolo[2,3-e][1,2,4]triazolo[1,5-a]pyridin-4-yl)methyl)-4-fluoropyridin-2(1H)-one]
9 | 680 | C[C@@H]1CN(CC(=O)N2CC(C)(C)c3c2cc(N2CCN(C)c4cc(F)ccc42)c2ncnn32)[C@@H](CN2CCOC[C@H]2C)CN1 [Compound 194, 1-(4-(6-fluoro-4-methyl-3,4-dihydroquinoxalin-1(2H)-yl)-8,8-dimethyl-7,8-dihydro-6H-pyrrolo[2,3-e][1,2,4]triazolo[1,5-a]pyridin-6-yl)-2-((2R,5R)-5-methyl-2-(((R)-3-methylmorpholino)methyl)piperazin-1-yl)ethan-1-one]
10 | 400 | CCOC(=O)c1cnn2c3c(cc(Cc4ccc(F)cc4)c12)N(C(=O)CN1C[C@@H](C)NC[C@@H]1CN1CCOC[C@H]1C)CC3(C)C [Compound 120, ethyl 4-(4-fluorobenzyl)-8,8-dimethyl-6-(2-((2R,5R)-5-methyl-2-(((R)-3-methylmorpholino)methyl)piperazin-1-yl)acetyl)-7,8-dihydro-6H-pyrazolo[1,5-a]pyrrolo[2,3-e]pyridine-3-carboxylate]
11 | 210 | C[C@@H]1CN(CC(=O)N2CC(C)(C)c3c2cc(Cc2ccc(F)cc2)c2nc(N4CCOCC4=O)nn32)[C@@H](CN2CCOC[C@H]2C)CN1 [Compound 208, 4-(4-(4-fluorobenzyl)-8,8-dimethyl-6-(2-((2R,5R)-5-methyl-2-(((R)-3-methylmorpholino)methyl)piperazin-1-yl)acetyl)-7,8-dihydro-6H-pyrrolo[2,3-e][1,2,4]triazolo[1,5-a]pyridin-2-yl)morpholin-3-one]

More lines, now with the values behind:

Row | SMILES | IC50 [nM]
12 | C[C@@H]1CN(CC(=O)N2CC(C)(C)c3c2cc(Cc2ccc(F)cc2)c2nc(C(F)(F)F)cn32)[C@@H](CN2CCN(CC#N)C[C@H]2C)CN1 [Compound 175, 2-((R)-4-(((2R,5R)-1-(2-(4-(4-fluorobenzyl)-8,8-dimethyl-2-(trifluoromethyl)-7,8-dihydro-6H-imidazo[1,2-a]pyrrolo[2,3-e]pyridin-6-yl)-2-oxoethyl)-5-methylpiperazin-2-yl)methyl)-3-methylpiperazin-1-yl)acetonitrile] | 120
13 | COC(=O)N1CCN(C[C@H]2CN[C@H](C)CN2CC(=O)N2CC(C)(C)c3c2cc(Cc2ccc(F)cc2)c2nn(CC(C)(C)O)c(=O)n32)[C@H](C)C1 [Compound 280, methyl (R)-4-(((2R,5R)-1-(2-(4-(4-fluorobenzyl)-2-(2-hydroxy-2-methylpropyl)-8,8-dimethyl-1-oxo-1,2,7,8-tetrahydro-6H-pyrrolo[2,3-e][1,2,4]triazolo[4,3-a]pyridin-6-yl)-2-oxoethyl)-5-methylpiperazin-2-yl)methyl)-3-methylpiperazine-1-carboxylate] | 68
14 | C[C@@H]1CN(CC(=O)N2CC3(CCOCC3)c3c2cc(Cc2ccc(F)cc2)c2nc(C(F)(F)F)cn32)[C@@H](CN2CCOC[C@H]2C)CN1 [Compound 183, 1-(4-(4-fluorobenzyl)-2-(trifluoromethyl)-2′,3′,5′,6′-tetrahydrospiro[imidazo[1,2-a]pyrrolo[2,3-e]pyridine-8,4′-pyran]-6(7H)-yl)-2-((2R,5R)-5-methyl-2-(((R)-3-methylmorpholino)methyl)piperazin-1-yl)ethan-1-one] | 810
15 | CC(=O)N1CCN(C[C@H]2CN[C@H](C)CN2CC(=O)N2CC(C)(C)c3c2cc(Cc2ccc(F)cc2)c2nc(C(F)(F)F)cn32)[C@H](C)C1 [Compound 174, 2-((2R,5R)-2-(((R)-4-acetyl-2-methylpiperazin-1-yl)methy 1)-5-methylpiperazin-1-yl)-1-(4-(4-fluorobenzyl)-8,8-dimethyl-2-(trifluoromethyl)-7,8-dihydro-6H-imidazo[1,2-a]pyrrolo[2,3-e]pyridin-6-yl)ethan-1-one] | 450
16 | C[C@@H]1CN(CC(=O)N2CC(C)(C)c3c2cc(Cc2ccc(F)cc2)c2cnc(-c4ccc(F)cc4)n32)[C@@H](CN2CCOC[C@H]2C)CN1 [Example 8, 1-(4-(4-fluorobenzyl)-1-(4-fluorophenyl)-8,8-dimethyl-7,8-di hydro-6H-imidazo[1,5-a]pyrrolo[2,3-e]pyridin-6-yl)-2-((2R,5R)-5-methyl-2-(((R)-3-methylmorpholino)methyl)piperazin-1-yl)ethan-1-one] | 36
17 | C[C@@H]1CN(CC(=O)N2CC(C)(C)c3c2cc(Cc2ccc(F)cc2)c2nc(C(F)(F)F)cn32)[C@@H](CN2CCN(S(C)(=O)=O)C[C@H]2C)CN1 [Compound 178, 1-(4-(4-fluorobenzyl)-8,8-dimethyl-2-(trifluoromethyl)-7,8-dihydro-6H-imidazo[1,2-a]pyrrolo[2,3-e]pyridin-6-yl)-2-((2R,5R)-5-methyl-2-(((R)-2-methyl-4-(methylsulfonyl)piperazin-1-yl)methyl)piperazin-1-yl)ethan-1-one] | 490
18 | C[C@@H]1CN(CC(=O)N2CC(C)(C)c3c2cc(Cc2ccc(F)cc2)c2nn(CC(C)(C)O)c(=O)n32)[C@@H](CN2CC3CC(C2)O3)CN1 [Compound 286, 6-(2-((2R,5R)-2-((6-oxa-3-azabicyclo[3.1.1]heptan-3-yl)methyl)-5-methylpiperazin-1-yl)acetyl)-4-(4-fluorobenzyl)-2-(2-hydroxy-2-methylpropyl)-8,8-dimethyl-2,6,7,8-tetrahydro-1H-pyrrolo[2,3-e][1,2,4]triazolo[4,3-a]pyridin-1-one] | 270
19 | C[C@@H]1CN(CC(=O)N2CC(C)(C)c3c2cc(Cc2ccc(F)cc2)n2c(C(F)(F)F)nnc32)[C@@H](CN2CCOC[C@H]2C)CN1 [Example 22, 1-(5-(4-fluorobenzyl)-9,9-dimethyl-3-(trifluoromethyl)-8,9-dihydro-7H-pyrrolo[3,2-c][1,2,4]triazolo[4,3-a]pyridin-7-yl)-2-((2R,5R)-5-methyl-2-(((R)-3-methylmorpholino)methyl)piperazin-1-yl)ethan-1-one] | 3710
20 | Cc1nccn1C[C@H]1CN[C@H](C)CN1CC(=O)N1CC(C)(C)c2c1cc(Cc1ccc(F)cc1)c1nc(C(F)(F)F)cn21 [Compound 186, 1-(4-(4-fluorobenzyl)-8,8-dimethyl-2-(trifluoromethyl)-7,8-dihydro-6H-imidazo[1,2-a]pyrrolo[2,3-e]pyridin-6-yl)-2-((2R,5R)-5-methyl-2-((2-methyl-1H-imidazol-1-yl)methyl)piperazin-1-yl)ethan-1-one] | 230
